For data set [1] the following is noted: human, pH 7.4.
A short description of data set [2]: In vitro transdermal caffeine delivery, Franz diffusion cells, excised human epidermis. As to conditions: after application of the formulations. The format is in vitro ADME. The method, then:
Pre-clinical selection of topical formulations was performed using an in-vitro penetration study through human epidermal membrane, which assesses the percutaneous absorption profiles of applied drugs. The method is based on the use of excised human skin as a membrane in a diffusion system that simulates in-vivo skin conditions. By analyzing the amount of the drug reaching the receptor solution, the penetration profile of the drug in the skin can be assessed and used as a tool to determine the feasibility of formulations for subsequent development. Embodiments of the transdermal compositions were tested in an in vitro penetration study through human epidermis as a testing membrane to simulate topical drug delivery. In particular, excised human epidermis was utilized to assess the penetration profiles of caffeine. Two transdermal compositions were tested: Formulation A and Formulation B. […] Formulation A was tested with and without occlusion. Parafilm was applied for occlusion tests, and the samples were kept under occlusion during the period of the study. […] The materials for the assays were: […] Formulation A; and Formulation B. […] Therefore, each formulation contained radioactive caffeine of 50 μCi/mL. The mixtures were stored at a 4° C. refrigerator after preparation. […] The amount of radioactive caffeine was analyzed from the receptor fluid samples. […]

Structures are written as SMILES. Like-named read-outs stand apart in the source and are kept apart here. Some results are limits rather than exact numbers.

Consider `CC(=O)O[C@H]1C(=O)[C@@]2(C)[C@H]([C@H](OC(=O)c3ccccc3)[C@]3(O)C[C@H](OC(=O)[C@H](O)[C@@H](NC(=O)c4ccccc4)c4ccccc4)C(C)=C1C3(C)C)[C@]1(OC(C)=O)CO[C@@H]1C[C@@H]2O` [Paclitaxel, paclitaxel], for which the “amount of active ingredient that penetrated the epidermis” value (shortened to “amount”) in data set [1] is reported as “approximately 0.5%”. As to `Nc1nc2ncc(CNc3ccc(C(=O)N[C@@H](CCC(=O)O)C(=O)O)cc3)nc2c(=O)[nH]1` [folic acid], in data set [1] (5 %), the “amount” value is listed as “Approximately 1%”. As for `Cn1c(=O)c2c(ncn2C)n(C)c1=O` [caffeine], the results for the “amount” value in data set [1] (5 %) and in data set [1] were “Greater than 3%” and “greater than 1%”, respectively. Besides, in data set [2], the “time to penetration of caffeine through the epidermis into the receptor chamber” value was at most 3 min. `C[C@]12CC[C@@H]3c4ccc(O)cc4CC[C@H]3[C@@H]1CC[C@@H]2O` [estradiol]: the “amount” value in data set [1] (5 %) is listed as “Greater than 2%”.

The values are drawn from US20150174068A1, “Apparatus, Composition, and Related Methods for Transdermal Delivery of Active Ingredients” (CURE IP HOLDINGS, LLC, priority 2011, published 2015).
